Conditions: same protocol, no polymer

Question: For `C[C@@H]1[C@H](O)[C@@H](C)/C=C/C=C/C=C/C=C/C=C/C=C/C=C/[C@H](O[C@@H]2O[C@H](C)[C@@H](O)[C@H](N)[C@@H]2O)C[C@@H]2O[C@](O)(C[C@@H](O)C[C@@H](O)[C@H](O)CC[C@@H](O)C[C@@H](O)CC(=O)O[C@H]1C)C[C@H](O)[C@H]2C(=O)O` [Amphotericin B], which “water solubility of Amphotericin B” value is on record?
Answer: approx. 0.4 μg/mL
